Results published in patent US20070254843A1, “Methods for treating bone associated diseases by the use of methionine aminopeptidase-2 inhibitors” (Praecis Pharmaceuticals Incorporated, priority 2006, published 2007).

Columns and labels:
[1] = system: PG-PS-induced arthritis; assay: Microfocal computed tomography of hind joints in rat PG-PS arthritis model; assay type: in vivo; details: PG-PS arthritis, 1 mg/kg; threshold 255
Description: Microfocal computed tomography. All specimens were scanned on a Scanco Medical AG μCT 40 system. Images were obtained with an isotropic voxel resolution of 20 microns. A matrix size of 1024×1024 with 1000 projections was utilized for all scans. A total of 1836 slices were scanned for each specimen (the number of slices scanned was determined by the length of the scan needed to cover the entire ankle including the distal tibia). The scan time per specimen was approximately 2.6 hours. The images were then volume rendered using a fixed threshold (at two different thresholds: 255 and 140). The total bone volume and BMD were calculated over the same regions of all the specimens. Micro-CT was performed at Scanco USA, Incorporated.
Finally, the activity of the MetAP-2 inhibitor on the structural preservation of hind joints in rats with established disease was investigated.
The ankles including the distal tibia were scanned using a Scanco Medical AG μCT 40 system (threshold: 255), and the total bone volume and BMD were calculated over the same regions of all specimens.

[2] = system: PG-PS-induced arthritis; assay: Clinical (histopathological) assessment of PG-PS arthritis, joint histology score; assay type: in vivo, rat; details: PG-PS arthritis, 1 mg/kg
Description: Clinical assessment of PG-PS arthritis. The histopathological evaluation was performed on the left and right hind joints of randomly selected animals from each study group by an independent histopathologist without knowledge of specific interventions. After completion of the study, the left and right hind ankles were removed, fixed in 10% buffered formalin, decalcified in 5% formic acid, paraffin-embedded, sectioned, and H&E stained for histological evaluation. A joint histology scoring system which grades the severity of 4 histopathological processes (cell infiltration, pannus formation, cartilage erosion, bone resorption), was used to quantify hind joint involvement in the PG-PS arthritis model (36). Dependent on the assigned score for each parameter (0=normal, 1=minimal, 2=mild, 3=moderate, 4=marked), the maximum total score per ankle is 16, and 32 per animal.
It was investigated whether the protective activity of the MetAP-2 inhibitor in this animal model of arthritis, which is characterized by aggressive synovitis, extensive pannus formation, cartilage degradation and focal bone erosion, was mediated through regression in the severity of all clinical indices tested, or whether this activity was targeting specific pathogenic processes.
A joint histology scoring system which grades the severity of 4 histopathological processes (cell infiltration, pannus formation, cartilage erosion, bone resorption) was used (O'Byrne (1991) Agents and Actions 134:239-241).

[3] = biological target: T1, MetAP-2 (Rattus norvegicus, UniProt P38062); assay: MetAP-2 pharmacodynamic assay in wbc lysates; assay type: in vivo; details: po, PG-PS arthritis rats, 1 mg/kg p.o. qod, read-out: MetAP-2 in wbc inhibited relative to vehicle-treated group
T1 construct: wbc from animals of each study group were pooled and cell lysates were prepared as previously described; from tissue; host or cells: white blood cells (wbc) of female Lewis rats, pooled per study group and lysed
T1 sequence (P38062 whole entry): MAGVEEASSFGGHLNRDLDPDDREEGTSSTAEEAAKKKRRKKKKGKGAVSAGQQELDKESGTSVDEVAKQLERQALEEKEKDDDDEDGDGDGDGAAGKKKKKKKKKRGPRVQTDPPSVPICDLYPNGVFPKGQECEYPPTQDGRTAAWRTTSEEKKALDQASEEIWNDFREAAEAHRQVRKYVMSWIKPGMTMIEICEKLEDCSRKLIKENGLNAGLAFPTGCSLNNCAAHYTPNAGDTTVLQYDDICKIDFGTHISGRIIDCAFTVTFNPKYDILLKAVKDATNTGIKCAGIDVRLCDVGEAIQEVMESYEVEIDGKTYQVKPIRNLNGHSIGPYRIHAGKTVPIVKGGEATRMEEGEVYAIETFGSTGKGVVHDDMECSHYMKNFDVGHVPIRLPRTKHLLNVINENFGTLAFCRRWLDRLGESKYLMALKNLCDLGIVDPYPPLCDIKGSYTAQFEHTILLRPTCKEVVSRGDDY
Description: MetAP-2 pharmacodynamic assay. The MetAP-2 assay measures the amount of uninhibited MetAP-2 in cells or tissues which has not been derivitized by prior treatment with the MetAP-2 inhibitor (Bernier (2004) Proc. Natl. Acad. Sci. USA 101: 10768-10773 and Bernier (2005) J. Cell. Biochem. 95: 1191-1203). Briefly, wbc from animals of each study group were pooled and cell lysates were prepared as previously described (Bernier (2004) Proc. Natl. Acad. Sci. USA 101: 10768-10773 and Bernier (2005) J. Cell. Biochem. 95: 1191-1203). 10 μg to 20 μg of wbc protein was incubated with a biotinylated analog of the MetAP-2 inhibitor which covalently binds to the catalytic site of MetAP-2. The biotinylated MetAP-2-inhibitor complex was captured on a plate with immobilized streptavidin (Pierce), and detected with the MetAP-2 antibody CM33 (0.5 μg/ml), followed by horseradish peroxidase-conjugated goat anti-rabbit IgG secondary antibody. The amount of uninhibited MetAP-2 was determined by measuring the absorption at 450 nm using a Labsystems Multiskan plate spectrophotometer. Human recombinant MetAP-2 (Mediomics), pre-bound to the biotinylated MetAP-2 inhibitor, was used to generate the standard curve. The detection limit of this assay was 0.47 ng MetAP-2 protein/mg wbc protein.
Since the MetAP-2 inhibitor had the ability to inhibit multiple cell types critical for pathogenesis of the bone associated disease, RA, in vitro, it was hypothesized that the observations from the in vitro studies (Example 1) would translate into protection from disease in animals in the PG-PS model of arthritis. The progression of disease in this model follows a biphasic mode, with an early acute, predominantly neutrophil-driven phase which persists to days 6-7, followed by a chronic, T cell dependent phase (evident around day 12), which is characterized by chronic inflammation and erosive synovitis (Palombella (1998) Proc. Natl. Acad. Sci. USA 95:15671-15676). Therapeutic dosing of animals administered the MetAP-2 inhibitor orally (p.o.) at 1, 5 and 10 mg/kg, every other day (qod), or vehicle started at day 15 after the chronic destructive phase of the disease was established and terminated on day 31. […] The amount of uninhibited MetAP-2 in wbc of animals from all treatment groups was measured after conclusion of the study, using the MetAP-2 pharmacodynamic assay (Bernier (2004) Proc. Natl. Acad. Sci. USA 101: 10768-10773 and Bernier (2005) J. Cell. Biochem. 95: 1191-1203). […]

With C[C@@H]1C[C@H]2[C@@H]3CCC4=CC(=O)C=C[C@]4(C)[C@@]3(F)[C@@H](O)C[C@]2(C)[C@@]1(O)C(=O)CO [dex, dexamethasone, reference compound] the BMD [1] was 1125 ± 2.59 mg HA/ccm, the “Bone Volume (Vox-BV)” value [1] was 240.7 ± 12.68 and the Total arthritis score [2] was 2.35 ± 0.23^B. The “Bone Resorption score” value ([2]; score 0-4) was 0.95 ± 0.13^B, the Cartilage erosion score ([2]; score 0-4) was 0.60 ± 0.14^B and the Cell infiltration score ([2]; score 0-4) was 0.25 ± 0.08^A. For the same compound, the Pannus formation score ([2]; score 0-4) was 0.55 ± 0.08^A and the inhibition at 1 mg/kg [3] was at least 90%.
